The assay concerns HBV. Kind of assay: HBV inhibition assay: anti-HBV activity in vitro in HepG2.2.15 cells (extracellular HBV DNA by qPCR). It is filed as cell-based. The conditions noted are these: Hepatitis B virus, 120 h, five days after compound treatment, extracellular HBV DNA in culture supernatant by qPCR, concentration at which HBV replication is inhibited by 50%. A digest of the protocol: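 HepG2.2.15 cells (stably carrying HBV genome) treated with half-log serially diluted compounds at 0.5% DMSO final for five days. Extracellular HBV DNA in supernatant quantified by qPCR after Proteinase K digestion; EC50 is concentration giving 50% inhibition of replication.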
A general note: Quantitative PCR measures a nucleic acid by following its amplification.
For `COCC1CC(=O)N(c2cnn3c2CN(C(=O)Nc2ccc(F)c(Cl)c2)[C@@H](C)C3)C1` (stereo partly drawn) [Example 295, (6S)—N-(3-chloro-4-fluoro-phenyl)-3-[4-(methoxymethyl)-2-oxo-pyrrolidin-1-yl]-6-methyl-6,7-dihydro-4H-pyrazolo[1,5-a]pyrazine-5-carboxamide], the EC50 (as a rule, the concentration needed to bring the measured effect to its halfway point) came to 33 nM.

Regarding `C[C@H]1Cn2ncc(N3CC4(CCOCC4)CC3=O)c2CN1C(=O)Nc1ccc(F)c(Cl)c1` [Example 296, (6S)—N-(3-chloro-4-fluoro-phenyl)-6-methyl-3-(3-oxo-8-oxa-2-azaspiro[4.5]decan-2-yl)-6,7-dihydro-4H-pyrazolo[1,5-a]pyrazine-5-carboxamide], a half-maximal response (EC50) required 30 nM.

For `CC1CCN(c2cnn3c2CN(C(=O)Nc2ccc(F)c(Cl)c2)[C@@H](C)C3)C1=O` (stereo partly drawn) [Example 297, (6S)—N-(3-chloro-4-fluoro-phenyl)-6-methyl-3-(3-methyl-2-oxo-pyrrolidin-1-yl)-6,7-dihydro-4H-pyrazolo[1,5-a]pyrazine-5-carboxamide], the half-maximal effective concentration (EC50) was 68 nM.

In turn, `C[C@H]1Cn2ncc(N3CC(CO)CC3=O)c2CN1C(=O)Nc1ccc(F)c(Cl)c1` (stereo partly drawn) [Example 298, (6S)—N-(3-chloro-4-fluoro-phenyl)-3-[4-(hydroxymethyl)-2-oxo-pyrrolidin-1-yl]-6-methyl-6,7-dihydro-4H-pyrazolo[1,5-a]pyrazine-5-carboxamide] yielded an EC50 of 104 nM.

`COCC1CC(=O)N(c2cnn3c2CN(C(=O)Nc2cc(F)c(F)c(F)c2)[C@@H](C)C3)C1` (stereo partly drawn) [Example 299, (6S)-3-[4-(methoxymethyl)-2-oxo-pyrrolidin-1-yl]-6-methyl-N-(3,4,5-trifluorophenyl)-6,7-dihydro-4H-pyrazolo[1,5-a]pyrazine-5-carboxamide]: a half-maximal response (EC50) required 80 nM.

`CCC1CC(=O)N(c2cnn3c2CN(C(=O)Nc2ccc(F)c(Cl)c2)[C@@H](C)C3)C1` (stereo partly drawn) [Example 302, (6S)—N-(3-chloro-4-fluoro-phenyl)-3-(4-ethyl-2-oxo-pyrrolidin-1-yl)-6-methyl-6,7-dihydro-4H-pyrazolo[1,5-a]pyrazine-5-carboxamide] displayed an EC50 of 20 nM.

`C[C@H]1Cn2ncc(N3CC4(CCOC4)CC3=O)c2CN1C(=O)Nc1ccc(F)c(Cl)c1` (stereo partly drawn) [Example 303, (6S)—N-(3-chloro-4-fluoro-phenyl)-6-methyl-3-(8-oxo-2-oxa-7-azaspiro[4.4]nonan-7-yl)-6,7-dihydro-4H-pyrazolo[1,5-a]pyrazine-5-carboxamide] yielded an EC50 of 81 nM.

In the case of `C[C@H]1Cn2ncc(N3CC(c4ccccc4)CC3=O)c2CN1C(=O)Nc1cc(F)c(F)c(F)c1` (stereo partly drawn) [Example 309, (6S)-6-methyl-3-(2-oxo-4-phenyl-pyrrolidin-1-yl)-N-(3,4,5-trifluorophenyl)-6,7-dihydro-4H-pyrazolo[1,5-a]pyrazine-5-carboxamide], the half-maximal effective concentration (EC50) came out at 5 nM.

Molecule `C[C@H]1Cn2ncc(N3CC(N(C)C(=O)c4ncco4)CC3=O)c2CN1C(=O)Nc1cc(F)c(F)c(F)c1` (stereo partly drawn) [Example 318, N-methyl-N-[1-[(6S)-6-methyl-5-[(3,4,5-trifluorophenyl)carbamoyl]-6,7-dihydro-4H-pyrazolo[1,5-a]pyrazin-3-yl]-5-oxo-pyrrolidin-3-yl]oxazole-2-carboxamide] showed an EC50 of 45 nM.

In turn, `CC1CN(c2cnn3c2CN(C(=O)Nc2ccc(F)c(Cl)c2)[C@@H](C)C3)C(=O)O1` (stereo partly drawn) [Example 321, (6S)—N-(3-chloro-4-fluoro-phenyl)-6-methyl-3-(5-methyl-2-oxo-oxazolidin-3-yl)-6,7-dihydro-4H-pyrazolo[1,5-a]pyrazine-5-carboxamide] displayed an EC50 of 47 nM.

Consider `CC1CN(c2cnn3c2CN(C(=O)Nc2ccc(F)c(Cl)c2)[C@@H](C)C3)C(=O)N1` (stereo partly drawn) [Example 326, (6S)—N-(3-chloro-4-fluoro-phenyl)-6-methyl-3-(4-methyl-2-oxo-imidazolidin-1-yl)-6,7-dihydro-4H-pyrazolo[1,5-a]pyrazine-5-carboxamide], for which a half-maximal response (EC50) required 46 nM.

`C[C@H]1Cn2ncc(N3CC(c4ccccc4)NC3=O)c2CN1C(=O)Nc1cc(F)c(F)c(F)c1` (stereo partly drawn) [Example 329, (6S)-6-methyl-3-(2-oxo-4-phenyl-imidazolidin-1-yl)-N-(3,4,5-trifluorophenyl)-6,7-dihydro-4H-pyrazolo[1,5-a]pyrazine-5-carboxamide] came in with an EC50 of 4 nM.

In the case of `C[C@H]1Cn2ncc(N3CC4(CC4)OC3=O)c2CN1C(=O)Nc1cc(F)c(F)c(F)c1` [Example 331, (6S)-6-methyl-3-(5-oxo-4-oxa-6-azaspiro[2.4]heptan-6-yl)-N-(3,4,5-trifluorophenyl)-6,7-dihydro-4H-pyrazolo[1,5-a]pyrazine-5-carboxamide], a half-maximal response (EC50) required 12 nM.

On to `C[C@H]1Cn2ncc(N3CC4(CCC4)OC3=O)c2CN1C(=O)Nc1cc(F)c(F)c(F)c1` [Example 332, (6S)-6-methyl-3-(6-oxo-5-oxa-7-azaspiro[3.4]octan-7-yl)-N-(3,4,5-trifluorophenyl)-6,7-dihydro-4H-pyrazolo[1,5-a]pyrazine-5-carboxamide], for which the EC50 is 11 nM.

As for `COC(=O)N1CC2(CC(=O)N(c3cnn4c3CN(C(=O)Nc3cc(F)c(F)c(F)c3)[C@@H](C)C4)C2)C1` [Example 333, methyl 6-[(6S)-6-methyl-5-[(3,4,5-trifluorophenyl)carbamoyl]-6,7-dihydro-4H-pyrazolo[1,5-a]pyrazin-3-yl]-7-oxo-2,6-diazaspiro[3.4]octane-2-carboxylate], the EC50 was found to be 46 nM.

Turning to `CCOC(=O)N1CC2(CC(=O)N(c3cnn4c3CN(C(=O)Nc3cc(F)c(F)c(F)c3)[C@@H](C)C4)C2)C1` [Example 334, ethyl 6-[(6S)-6-methyl-5-[(3,4,5-trifluorophenyl)carbamoyl]-6,7-dihydro-4H-pyrazolo[1,5-a]pyrazin-3-yl]-7-oxo-2,6-diazaspiro[3.4]octane-2-carboxylate], the 50% effective concentration (EC50) is 22 nM.

The molecule `C[C@H]1Cn2ncc(N3CC4(CC3=O)CN(C(=O)c3ncco3)C4)c2CN1C(=O)Nc1cc(F)c(F)c(F)c1` [Example 336, (6S)-6-methyl-3-[2-(oxazole-2-carbonyl)-7-oxo-2,6-diazaspiro[3.4]octan-6-yl]-N-(3,4,5-trifluorophenyl)-6,7-dihydro-4H-pyrazolo[1,5-a]pyrazine-5-carboxamide] returned a concentration giving a half-maximal response (EC50) of 66 nM.

Molecule `C[C@H]1Cn2ncc(N3CC4(CC3=O)CN(c3ncccn3)C4)c2CN1C(=O)Nc1cc(F)c(F)c(F)c1` [Example 337, (6S)-6-methyl-3-(7-oxo-2-pyrimidin-2-yl-2,6-diazaspiro[3.4]octan-6-yl)-N-(3,4,5-trifluorophenyl)-6,7-dihydro-4H-pyrazolo[1,5-a]pyrazine-5-carboxamide] displayed an EC50 of 15 nM.

In turn, `C[C@H]1Cn2ncc(N3C(=O)Cc4ccccc43)c2CN1C(=O)Nc1cc(F)c(F)c(F)c1` [Example 338, (6S)-6-methyl-3-(2-oxoindolin-1-yl)-N-(3,4,5-trifluorophenyl)-6,7-dihydro-4H-pyrazolo[1,5-a]pyrazine-5-carboxamide] yielded a concentration giving a half-maximal response (EC50) of 14 nM.

Take `C[C@H]1Cn2ncc(-c3ncc(F)cn3)c2CN1C(=O)Nc1cc(F)c(F)c(F)c1` [Example 341, (6S)-3-(5-fluoropyrimidin-2-yl)-6-methyl-N-(3,4,5-trifluorophenyl)-6,7-dihydro-4H-pyrazolo[1,5-a]pyrazine-5-carboxamide]: the EC50 came out at 40 nM.

Consider `C[C@H]1Cn2ncc(-n3cc(CO)cn3)c2CN1C(=O)Nc1cc(F)c(F)c(F)c1` [Example 342, (6S)-3-[4-(hydroxymethyl)pyrazol-1-yl]-6-methyl-N-(3,4,5-trifluorophenyl)-6,7-dihydro-4H-pyrazolo[1,5-a]pyrazine-5-carboxamide], for which the EC50 is 41 nM.

`C[C@H]1Cn2ncc(N3CC(c4ccccc4)OC3=O)c2CN1C(=O)Nc1cc(F)c(F)c(F)c1` (stereo partly drawn) [Example 344, (6S)-6-methyl-3-(2-oxo-5-phenyl-oxazolidin-3-yl)-N-(3,4,5-trifluorophenyl)-6,7-dihydro-4H-pyrazolo[1,5-a]pyrazine-5-carboxamide] gave a 50% effective concentration (EC50) of 7 nM.

In turn, `C[C@H]1Cn2ncc(N3CC(c4ccccn4)OC3=O)c2CN1C(=O)Nc1cc(F)c(F)c(F)c1` (stereo partly drawn) [Example 345, (6S)-6-methyl-3-[2-oxo-5-(2-pyridyl)oxazolidin-3-yl]-N-(3,4,5-trifluorophenyl)-6,7-dihydro-4H-pyrazolo[1,5-a]pyrazine-5-carboxamide] registered a half-maximal effective concentration (EC50) of 17 nM.

Molecule `C[C@H]1Cn2ncc(N3CC(c4ccncc4)OC3=O)c2CN1C(=O)Nc1cc(F)c(F)c(F)c1` (stereo partly drawn) [Example 346, (6S)-6-methyl-3-[2-oxo-5-(4-pyridyl)oxazolidin-3-yl]-N-(3,4,5-trifluorophenyl)-6,7-dihydro-4H-pyrazolo[1,5-a]pyrazine-5-carboxamide] gave an EC50 of 12 nM.

Turning to `C[C@H]1Cn2ncc(N3CC(c4cocn4)OC3=O)c2CN1C(=O)Nc1cc(F)c(F)c(F)c1` (stereo partly drawn) [Example 348, (6S)-6-methyl-3-(5-oxazol-4-yl-2-oxo-oxazolidin-3-yl)-N-(3,4,5-trifluorophenyl)-6,7-dihydro-4H-pyrazolo[1,5-a]pyrazine-5-carboxamide], the EC50 is 94 nM.

`Cc1ncc(C2CC(=O)N(c3cnn4c3CN(C(=O)Nc3cc(F)c(F)c(F)c3)[C@@H](C)C4)C2)o1` (stereo partly drawn) [Example 349, (6S)-6-methyl-3-[4-(2-methyloxazol-5-yl)-2-oxo-pyrrolidin-1-yl]-N-(3,4,5-trifluorophenyl)-6,7-dihydro-4H-pyrazolo[1,5-a]pyrazine-5-carboxamide] showed a concentration giving a half-maximal response (EC50) of 15 nM.

`Cc1nc(C2CC(=O)N(c3cnn4c3CN(C(=O)Nc3cc(F)c(F)c(F)c3)[C@@H](C)C4)C2)co1` (stereo partly drawn) [Example 350, (6S)-6-methyl-3-[4-(2-methyloxazol-4-yl)-2-oxo-pyrrolidin-1-yl]-N-(3,4,5-trifluorophenyl)-6,7-dihydro-4H-pyrazolo[1,5-a]pyrazine-5-carboxamide] registered an EC50 of 15 nM.

In turn, `C[C@H]1Cn2ncc(N3CC(c4cccnc4)CC3=O)c2CN1C(=O)Nc1cc(F)c(F)c(F)c1` (stereo partly drawn) [Example 351, (6S)-6-methyl-3-[2-oxo-4-(3-pyridyl)pyrrolidin-1-yl]-N-(3,4,5-trifluorophenyl)-6,7-dihydro-4H-pyrazolo[1,5-a]pyrazine-5-carboxamide] registered an EC50 of 12 nM.

Source of the values: patent publication US11168086B2, “Methods of synthesizing pyrazine compounds” (Hoffmann-La Roche Inc., priority 2015, dated 2021).
